Laboratory results: PubChem BioAssay AID2060883 (Molecular Pharmacology Branch, DTP, NCI, 2025)

Test system: 843782-103-R-J1-PDC complex spheroid viability
Experiment: Anticancer human tumor 843782-103-R-J1-PDC patient-derived lung adenocarcinoma cell line growth inhibition [RAS]
Settings: for IC50: curve of first compound; for viability, T/C: stronger effect = lower value
Outline: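 Tumour cells grown as complex spheroids with HUVEC endothelial cells and mesenchymal stem cells, treated with RAS pathway inhibitor combinations. Each agent spans half-log steps from near clinical Cmax, or 10 microM where Cmax is unknown.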

[1] = second compound 0.000949 µM, first compound 0.00316 µM
[2] = second compound 0.000949 µM, first compound 0.01 µM
[3] = second compound 0.000949 µM, first compound 0.0316 µM
[4] = second compound 0.000949 µM, first compound 0.1 µM
[5] = second compound 0.003 µM, first compound 0.00316 µM
[6] = second compound 0.003 µM, first compound 0.01 µM
[7] = second compound 0.003 µM, first compound 0.0316 µM
[8] = second compound 0.003 µM, first compound 0.1 µM
[9] = second compound 0.00949 µM, first compound 0.00316 µM
[10] = second compound 0.00949 µM, first compound 0.01 µM
[11] = second compound 0.00949 µM, first compound 0.0316 µM
[12] = second compound 0.00949 µM, first compound 0.1 µM
[13] = second compound 0.03 µM, first compound 0.00316 µM
[14] = second compound 0.03 µM, first compound 0.01 µM
[15] = second compound 0.03 µM, first compound 0.0316 µM
[16] = second compound 0.03 µM, first compound 0.1 µM
[17] = second compound 0.0949 µM, first compound 0.00316 µM
[18] = second compound 0.0949 µM, first compound 0.01 µM
[19] = second compound 0.0949 µM, first compound 0.0316 µM
[20] = second compound 0.0949 µM, first compound 0.1 µM
[21] = second compound 0.3 µM, first compound 0.00316 µM
[22] = second compound 0.3 µM, first compound 0.01 µM
[23] = second compound 0.3 µM, first compound 0.0316 µM
[24] = second compound 0.3 µM, first compound 0.1 µM
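Also: viability read after seven days of compound exposure.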

## O=C(c1ccc(F)c(F)c1Nc1ccc(I)cc1F)N1CC(O)([C@@H]2CCCCN2)C1 + CCn1c(-c2cccnc2C(C)OC)c2c3cc(ccc31)N1CCOC(CC(NC(=O)C(C(C)C)N(C)C(=O)C3(F)CCN(C(=O)C#CC(C)(C)N(C)C)CC3)C(=O)N3CCCC(N3)C(=O)OCC(C)(C)C2)C1
Second compound 0.000949 µM
  IC50: 18.2 nM
Second compound 0.003 µM
  IC50: 17.4 nM
Second compound 0.00949 µM
  IC50: 22 nM
Second compound 0.03 µM
  IC50: 14.8 nM
Second compound 0.0949 µM
  IC50: 24.3 nM
Second compound 0.3 µM
  IC50: 16.2 nM
[1]
  viability, T/C: 74.1%
[2]
  viability, T/C: 56.1%
[3]
  viability, T/C: 42.7%
[4]
  viability, T/C: 31.9%
Second compound 0.000949 µM, first compound 0.316 µM
  viability, T/C: 20.1%
Second compound 0.000949 µM, first compound 1 µM
  viability, T/C: 11.8%
[5]
  viability, T/C: 72.2%
[6]
  viability, T/C: 49.3%
[7]
  viability, T/C: 43.2%
[8]
  viability, T/C: 35.1%
Second compound 0.003 µM, first compound 0.316 µM
  viability, T/C: 20.1%
Second compound 0.003 µM, first compound 1 µM
  viability, T/C: 9.69%
[9]
  viability, T/C: 69.7%
[10]
  viability, T/C: 58%
[11]
  viability, T/C: 47.1%
[12]
  viability, T/C: 30.9%
Second compound 0.00949 µM, first compound 0.316 µM
  viability, T/C: 19.2%
Second compound 0.00949 µM, first compound 1 µM
  viability, T/C: 11.9%
[13]
  viability, T/C: 58.6%
[14]
  viability, T/C: 58.1%
[15]
  viability, T/C: 38.9%
[16]
  viability, T/C: 27.9%
Second compound 0.03 µM, first compound 0.316 µM
  viability, T/C: 20.1%
Second compound 0.03 µM, first compound 1 µM
  viability, T/C: 12.3%
[17]
  viability, T/C: 75%
[18]
  viability, T/C: 61.4%
[19]
  viability, T/C: 43.7%
[20]
  viability, T/C: 36.5%
Second compound 0.0949 µM, first compound 0.316 µM
  viability, T/C: 22.9%
Second compound 0.0949 µM, first compound 1 µM
  viability, T/C: 11.7%
[21]
  viability, T/C: 62.9%
[22]
  viability, T/C: 59.7%
[23]
  viability, T/C: 38.2%
[24]
  viability, T/C: 26.8%
Second compound 0.3 µM, first compound 0.316 µM
  viability, T/C: 23.2%
Second compound 0.3 µM, first compound 1 µM
  viability, T/C: 13.9%

## CC(C)n1nc(-c2ccc3oc(N)nc3c2)c2c(N)ncnc21 + CCn1c(-c2cccnc2C(C)OC)c2c3cc(ccc31)N1CCOC(CC(NC(=O)C(C(C)C)N(C)C(=O)C3(F)CCN(C(=O)C#CC(C)(C)N(C)C)CC3)C(=O)N3CCCC(N3)C(=O)OCC(C)(C)C2)C1
Second compound 0.000949 µM
  IC50: 6.59 nM
Second compound 0.003 µM
  IC50: 5.28 nM
Second compound 0.00949 µM
  IC50: 5.87 nM
Second compound 0.03 µM
  IC50: 5.1 nM
Second compound 0.0949 µM
  IC50: 7.35 nM
Second compound 0.3 µM
  IC50: 3.57 nM
Second compound 0.000949 µM, first compound 0.000316 µM
  viability, T/C: 84.1%
Second compound 0.000949 µM, first compound 0.001 µM
  viability, T/C: 66.4%
[1]
  viability, T/C: 55.4%
[2]
  viability, T/C: 52.8%
[3]
  viability, T/C: 28.5%
[4]
  viability, T/C: 14.9%
Second compound 0.003 µM, first compound 0.000316 µM
  viability, T/C: 78.1%
Second compound 0.003 µM, first compound 0.001 µM
  viability, T/C: 72.7%
[5]
  viability, T/C: 52.9%
[6]
  viability, T/C: 44.4%
[7]
  viability, T/C: 27.1%
[8]
  viability, T/C: 18.3%
Second compound 0.00949 µM, first compound 0.000316 µM
  viability, T/C: 72.7%
Second compound 0.00949 µM, first compound 0.001 µM
  viability, T/C: 62.8%
[9]
  viability, T/C: 57.3%
[10]
  viability, T/C: 46.1%
[11]
  viability, T/C: 28%
[12]
  viability, T/C: 15.5%
Second compound 0.03 µM, first compound 0.000316 µM
  viability, T/C: 70.4%
Second compound 0.03 µM, first compound 0.001 µM
  viability, T/C: 69.9%
[13]
  viability, T/C: 53.6%
[14]
  viability, T/C: 42.7%
[15]
  viability, T/C: 25.3%
[16]
  viability, T/C: 17.1%
Second compound 0.0949 µM, first compound 0.000316 µM
  viability, T/C: 73%
Second compound 0.0949 µM, first compound 0.001 µM
  viability, T/C: 64%
[17]
  viability, T/C: 70.5%
[18]
  viability, T/C: 42.1%
[19]
  viability, T/C: 25.6%
[20]
  viability, T/C: 15.8%
Second compound 0.3 µM, first compound 0.000316 µM
  viability, T/C: 71.3%
Second compound 0.3 µM, first compound 0.001 µM
  viability, T/C: 66.7%
[21]
  viability, T/C: 47.3%
[22]
  viability, T/C: 40.3%
[23]
  viability, T/C: 23.7%
[24]
  viability, T/C: 12.6%
